In one assay the target is T1, BRD4 BD1 (Homo sapiens, UniProt O60885).
T1 construct: made in house
As to the kind of experiment: AlphaScreen binding assay, BRD4 Bromodomain 1. An outline of the steps: (§1)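 Compound dilution series were mixed with His-tagged BRD4 bromodomain and biotinylated tetra-acetylated H4 (1-21) peptide at pH 7.3 (BD1 and peptide at 50 nM, BD2 and peptide at 100 nM). Donor and acceptor beads were then added, and plates were equilibrated at least 1 h before reading. IC50 values were fitted with a four-parameter logistic model.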

A further assay has as its target T2, BRD4 BD2 (Homo sapiens, UniProt O60885).
T2 construct: made in house
In words: AlphaScreen binding assay, BRD4 Bromodomain 2. The method, boiled down: as §1

As to `CC(=O)N1c2ccc(-c3cc(C(F)(F)F)nn3C)cc2N(C(=O)c2ccco2)C[C@@H]1C` [Example I-851], the results for the IC50 on BRD4 BD1 and at BRD4 BD2 were > 10000 nM and > 500 nM, respectively.

Regarding `CC(=O)N1c2ccc(-c3cccc(-n4cccn4)c3)cc2N(C(=O)c2ccco2)C[C@@H]1C` [Example I-853], the IC50 on BRD4 BD1 was 100 to 1000 nM; at BRD4 BD2 it was < 50 nM.

Take `CC(=O)N1c2ccc(-c3cccc(-c4nnc(C)o4)c3)cc2N(C(=O)c2ccco2)C[C@@H]1C` [Example I-854]: the IC50 was 1000 to 10000 nM at BRD4 BD1 and 50 to 500 nM at BRD4 BD2.

As for `CC(=O)N1c2ccc(-c3cccc(-c4ccco4)c3)cc2N(C(=O)c2ccco2)C[C@@H]1C` [Example I-855], the IC50 is 1000 to 10000 nM at BRD4 BD1 and < 50 nM on BRD4 BD2.

On to `CC(=O)N1c2ccc(-c3cccc(C(N)=O)c3)cc2N(C(=O)c2ccco2)C[C@@H]1C` [Example I-856], for which the figures for the IC50 at BRD4 BD1 and on BRD4 BD2 were 1000 to 10000 nM and < 50 nM, respectively.

Take `CC(=O)N1c2ccc(-c3cccc4c3cnn4C)cc2N(C(=O)c2ccco2)C[C@@H]1C` [Example I-858]: the IC50 at BRD4 BD1 was in the range of 1000 to 10000 nM; on BRD4 BD2 it was 50 to 500 nM.

Take `CC(=O)N1c2ccc(-c3ccnc(C(F)(F)F)c3)cc2N(C(=O)c2ccco2)C[C@@H]1C` [Example I-861]: the values for the IC50 at BRD4 BD1 and at BRD4 BD2 were 1000 to 10000 nM and 50 to 500 nM, respectively.

`CC(=O)N1c2ccc(-c3ccc(S(=O)(=O)C(F)(F)F)cc3)cc2N(C(=O)c2ccco2)C[C@@H]1C` [Example I-866]: the IC50 on BRD4 BD1 was in the range of 1000 to 10000 nM; at BRD4 BD2, 50 to 500 nM.

For `CC(=O)N1c2ccc(-c3cc(F)cc(F)c3)cc2N(C(=O)c2ccco2)C[C@@H]1C` [Example I-869], the IC50 at BRD4 BD1 lay in the range of 1000 to 10000 nM; at BRD4 BD2, 50 to 500 nM.

As for `CC(=O)N1c2ccc(-c3cccc(N(C)C)c3)cc2N(C(=O)c2ccco2)C[C@@H]1C` [Example I-870], the results for the IC50 on BRD4 BD1 and on BRD4 BD2 were 100 to 1000 nM and 50 to 500 nM, respectively.

Consider `CC(=O)N1c2ccc(-c3cccc4ccsc34)cc2N(C(=O)c2ccco2)C[C@@H]1C` [Example I-873], for which the IC50 was 1000 to 10000 nM at BRD4 BD1 and > 500 nM on BRD4 BD2.

As for `COc1ccc(C(=O)N2C[C@H](C)N(C(C)=O)c3ccc(-c4ccc(S(C)(=O)=O)cc4)cc32)cc1` [Example I-877], the IC50 fell in the range of 1000 to 10000 nM at BRD4 BD1 and 50 to 500 nM at BRD4 BD2.

For the compound `CC(=O)N1c2ccc(-c3ccc(S(C)(=O)=O)cc3)cc2N(C(=O)c2ccc(F)cc2)C[C@@H]1C` [Example I-878], the IC50 on BRD4 BD1 is > 10000 nM; at BRD4 BD2, 50 to 500 nM.

As to `CC(=O)N1c2ccc(-c3ccc(S(C)(=O)=O)cc3)cc2N(C(=O)c2ccc(OC(F)(F)F)cc2)C[C@@H]1C` [Example I-879], the IC50 at BRD4 BD1 is > 10000 nM; on BRD4 BD2 it was > 500 nM.

As to `CC(=O)N1c2ccc(-c3ccc(S(C)(=O)=O)cc3)cc2N(C(=O)c2ccc(Oc3cc(Cl)cc(Cl)c3)o2)C[C@@H]1C` [Example I-880], the IC50 is > 10000 nM at BRD4 BD1 and > 500 nM on BRD4 BD2.

Regarding `CC(=O)N1c2ccc(-c3ccc(S(C)(=O)=O)cc3)cc2N(C(=O)c2cn(C)cn2)C[C@@H]1C` [Example I-881], the IC50 on BRD4 BD1 is > 10000 nM; on BRD4 BD2 it was > 500 nM.

Turning to `COc1ccc2[nH]c(C(=O)N3CC(C)N(C(C)=O)c4ccc(-c5ccc(S(C)(=O)=O)cc5)cc43)cc2c1` (centres unmarked) [Example I-882], the IC50 at BRD4 BD1 lay in the range of 1000 to 10000 nM; on BRD4 BD2, 50 to 500 nM.

`COc1cccc2[nH]c(C(=O)N3CC(C)N(C(C)=O)c4ccc(-c5ccc(S(C)(=O)=O)cc5)cc43)cc12` (centres unmarked) [Example I-883]: the IC50 at BRD4 BD1 is > 10000 nM; on BRD4 BD2 it was > 500 nM.

For the compound `CC(=O)N1c2ccc(-c3ccc(S(C)(=O)=O)cc3)cc2N(C(=O)c2ncoc2C)C[C@@H]1C` [Example I-884], the IC50 on BRD4 BD1 was > 10000 nM; on BRD4 BD2, > 500 nM.

On to `CC(=O)N1c2ccc(-c3ccc(S(C)(=O)=O)cc3)cc2N(C(=O)c2csc(-c3ccccc3)n2)C[C@@H]1C` [Example I-885], for which the IC50 on BRD4 BD1 was > 10000 nM; at BRD4 BD2, > 500 nM.

Consider `CC(=O)N1c2ccc(-c3ccc(S(C)(=O)=O)cc3)cc2N(C(=O)c2ccc(-c3ccccc3)o2)C[C@@H]1C` [Example I-886], for which the IC50 was > 10000 nM on BRD4 BD1 and 50 to 500 nM on BRD4 BD2.

In the case of `CC(=O)N1c2ccc(-c3ccc(S(C)(=O)=O)cc3)cc2N(C(=O)c2ccc(C(F)(F)F)o2)C[C@@H]1C` [Example I-887], the IC50 at BRD4 BD1 was > 10000 nM; at BRD4 BD2 it was 50 to 500 nM.

`CC(=O)N1c2ccc(-c3ccc(S(C)(=O)=O)cc3)cc2N(C(=O)c2ccc(S(C)(=O)=O)o2)C[C@@H]1C` [Example I-888]: the IC50 is > 10000 nM at BRD4 BD1 and > 500 nM on BRD4 BD2.

With `CC(=O)Nc1cccc(C(=O)N2C[C@H](C)N(C(C)=O)c3ccc(-c4ccc(S(C)(=O)=O)cc4)cc32)c1` [Example I-889], the IC50 on BRD4 BD1 is > 10000 nM; at BRD4 BD2, > 500 nM.

Consider `CC(=O)N1c2ccc(-c3ccc(S(C)(=O)=O)cc3)cc2N(C(=O)c2ccc(CN)o2)C[C@@H]1C` [Example I-890], for which the results for the half-inhibitory concentration (IC50) at BRD4 BD1 and on BRD4 BD2 were 1000 to 10000 nM and 50 to 500 nM, respectively.

Take `CC(=O)N1c2ccccc2N(Cc2ccc(N(C)C)cc2)C[C@@H]1C` [Example I-891]: the IC50 is > 10000 nM at BRD4 BD1 and > 500 nM on BRD4 BD2.

As to `CC(=O)N1c2ccccc2N(Cc2ccc(C(C)C)cc2)C[C@@H]1C` [Example I-892], the IC50 on BRD4 BD1 is > 10000 nM; at BRD4 BD2, > 500 nM.

As to `CC(=O)N1c2ccccc2N(Cc2cccc(C)c2)C[C@@H]1C` [Example I-893], the results for the IC50 on BRD4 BD1 and at BRD4 BD2 were > 10000 nM and > 500 nM, respectively.

As for `CC(=O)N1c2ccccc2N(Cc2ccc(Cl)cc2Cl)C[C@@H]1C` [Example I-894], the IC50 at BRD4 BD1 was > 10000 nM; at BRD4 BD2, > 500 nM.

Turning to `CC(=O)N1c2ccccc2N(Cc2ccc(C)cc2)C[C@@H]1C` [Example I-895], the IC50 on BRD4 BD1 is > 10000 nM; at BRD4 BD2, > 500 nM.

In the case of `CC(=O)N1c2ccccc2N(Cc2ccccc2C)C[C@@H]1C` [Example I-896], the IC50 is > 10000 nM on BRD4 BD1 and > 500 nM on BRD4 BD2.

With `CC(=O)N1c2ccccc2N(Cc2ccc(F)cc2F)C[C@@H]1C` [Example I-897], the IC50 at BRD4 BD1 was > 10000 nM; on BRD4 BD2, > 500 nM.

In the case of `CC(=O)N1c2ccccc2N(Cc2ccc(Cl)c(F)c2)C[C@@H]1C` [Example I-898], the IC50 was > 10000 nM at BRD4 BD1 and > 500 nM at BRD4 BD2.

With `CC(=O)N1c2ccccc2N(Cc2cccc(C(F)(F)F)c2)C[C@@H]1C` [Example I-899], the figures for the IC50 on BRD4 BD1 and at BRD4 BD2 were > 10000 nM and > 500 nM, respectively.

For `CC(=O)N1c2ccccc2N(Cc2cc(C(F)(F)F)cc(C(F)(F)F)c2)C[C@@H]1C` [Example I-900], the figures for the IC50 at BRD4 BD1 and on BRD4 BD2 were > 10000 nM and > 500 nM, respectively.

With `CCc1ccc(CN2C[C@H](C)N(C(C)=O)c3ccccc32)cc1` [Example I-901], the IC50 on BRD4 BD1 was > 10000 nM; on BRD4 BD2 it was > 500 nM.

`COc1cc(CN2C[C@H](C)N(C(C)=O)c3ccccc32)cc(OC)c1` [Example I-902]: the results for the IC50 at BRD4 BD1 and at BRD4 BD2 were > 10000 nM and > 500 nM, respectively.

Turning to `CC(=O)N1c2ccccc2N(Cc2cc(C)ccc2C)C[C@@H]1C` [Example I-903], the figures for the IC50 on BRD4 BD1 and on BRD4 BD2 were > 10000 nM and > 500 nM, respectively.

For `CC(=O)N1c2ccccc2N(Cc2ccc(O)c(C)c2)C[C@@H]1C` [Example I-904], the figures for the IC50 on BRD4 BD1 and at BRD4 BD2 were > 10000 nM and > 500 nM, respectively.

Consider `CC(=O)N1c2ccccc2N(Cc2cc(C)nn2C)C[C@@H]1C` [Example I-905], for which the results for the half-inhibitory concentration (IC50) on BRD4 BD1 and on BRD4 BD2 were > 10000 nM and > 500 nM, respectively.

In the case of `CC(=O)N1c2ccccc2N(Cc2ccccc2OCCN(C)C)C[C@@H]1C` [Example I-906], the IC50 on BRD4 BD1 was > 10000 nM; at BRD4 BD2, 50 to 500 nM.

With `CC(=O)N1c2ccccc2N(Cc2ccc(OCCN(C)C)cc2)C[C@@H]1C` [Example I-907], the IC50 was > 10000 nM at BRD4 BD1 and > 500 nM at BRD4 BD2.

Regarding `CC(=O)N1c2ccccc2N(Cc2cccc(OCCN(C)C)c2)C[C@@H]1C` [Example I-908], the IC50 at BRD4 BD1 was > 10000 nM; on BRD4 BD2 it was 50 to 500 nM.

As to `CC(=O)N1c2ccccc2N(Cc2ccccc2)C[C@@H]1C` [Example I-909], the values for the IC50 on BRD4 BD1 and at BRD4 BD2 were > 10000 nM and 50 to 500 nM, respectively.

Take `CC(=O)N1c2ccccc2N(CC2CCCCC2)C[C@@H]1C` [Example I-910]: the results for the IC50 at BRD4 BD1 and at BRD4 BD2 were > 10000 nM and > 500 nM, respectively.

For `CC(=O)N1c2ccccc2N(Cc2ccc(C(F)(F)F)nc2)C[C@@H]1C` [Example I-911], the IC50 on BRD4 BD1 is > 10000 nM; on BRD4 BD2, > 500 nM.

With `CC(=O)N1c2ccccc2N(Cc2ccncc2)C[C@@H]1C` [Example I-912], the IC50 is > 10000 nM at BRD4 BD1 and > 500 nM on BRD4 BD2.

On to `CC(=O)N1c2ccccc2N(Cc2ccccn2)C[C@@H]1C` [Example I-913], for which the values for the IC50 at BRD4 BD1 and at BRD4 BD2 were > 10000 nM and > 500 nM, respectively.

Consider `COc1cncc(CN2C[C@H](C)N(C(C)=O)c3ccccc32)c1` [Example I-914], for which the IC50 was > 10000 nM on BRD4 BD1 and > 500 nM at BRD4 BD2.

`CC(=O)N1c2ccccc2N(Cc2nccs2)C[C@@H]1C` [Example I-915]: the IC50 was > 10000 nM on BRD4 BD1 and > 500 nM on BRD4 BD2.

In the case of `CC(=O)N1c2ccccc2N(Cc2ccc(-c3ccccc3)cc2)C[C@@H]1C` [Example I-916], the IC50 at BRD4 BD1 is > 10000 nM; on BRD4 BD2, > 500 nM.

For the compound `CC(=O)N1c2ccccc2N(Cc2ccc(OC(C)C)cc2)C[C@@H]1C` [Example I-917], the IC50 is > 10000 nM on BRD4 BD1 and > 500 nM at BRD4 BD2.

With `CC(=O)N1c2ccccc2N(Cc2cccc(Oc3ccccc3)c2)C[C@@H]1C` [Example I-918], the figures for the IC50 on BRD4 BD1 and on BRD4 BD2 were > 10000 nM and > 500 nM, respectively.

On to `CC(=O)N1c2ccccc2N(Cc2ccc(Oc3ccccc3)cc2)C[C@@H]1C` [Example I-919], for which the figures for the IC50 on BRD4 BD1 and at BRD4 BD2 were > 10000 nM and > 500 nM, respectively.

With `CC(=O)N1c2ccccc2N(Cc2ccc3c(c2)OCO3)C[C@@H]1C` [Example I-920], the IC50 was > 10000 nM at BRD4 BD1 and > 500 nM on BRD4 BD2.
